Laboratory results from US9683014B2, “Dipeptide mimetics of NGF and BDNF neurotrophins” (UCHREZHDENIE ROSSIISKOI AKADEMII MEDITSYNSKIKH NAUK …, priority 2009, dated 2017).
Read-outs that look alike come from different tables or passages of the source. Marks after values point to notes of the source that are not given here.

Assays:
[1] = system: HT-22 neuronal cell line; assay: Viability of HT-22 neuronal cell line without damaging factors (MTT test); assay type: cell-based, mouse; conditions: added at plating and every 24 h for 10 days, control 0.283 ± 0.039
Description: The rat adrenal […] pheochromocytoma cell line PC12 was obtained from the Cell Culture Museum, RAN Institute of Molecular Genetics. The immortalized mouse hippocampal cell line HT-22 was a gift from Prof. F. Viegant, Utrecht University, the Netherlands.
The cells were grown in DMEM medium containing 5% FBS and 2 mM L-glutamine. The cells were incubated at 37° C. and 5% CO2. The growth medium was changed at 24 hours after inoculation and every 3 days thereafter. The cells were re-plated every week into culture flasks with a total area of 75 cm^2.
All types of cells were plated in DMEM medium.

[2] = system: PC12 cell line; assay: Cellular model of Parkinson's disease (MPTP, MTT test); assay type: cell-based, rat
Description: To produce a model for Parkinson's disease, MPTP was used at a final concentration of 1 mM (Shimoke K., Chiba H. Nerve growth factor prevents 1-methyl-[…]-1,2,3,6-tetrahydropyridine-induced cell death via the Akt pathway by suppressing caspase-3-like activity using PC12 cells: relevance to therapeutic application for Parkinson's disease. J. Neurosci. Res. 2001, 63, 402-409). MPTP was added to the cell growth medium containing 1% FBS at 24 hours after passage. The peptides were added to the cell growth medium concurrently with MPTP or 24 h before MPTP. Cell viability was determined at 24 h using an MTT test.

[3] = system: rats with hemorrhagic stroke; conditions: 1 mg/kg
Description: The experiments were carried out on male white outbred rats weighing 220-250 g. […] The local cerebral hemorrhage (post-traumatic intracerebral hemorrhage) as a hemorrhagic stroke (HS) model was produced by the method of Makarenko (Makarenko A. N. et al., Zh. V. N. D. 2002, 52(6), 765-768).
To produce the stroke, rats were anesthetized with chloral hydrate (400 mg/kg i.m.) followed by craniotomy. The cerebral tissue in the region of internal capsule was destroyed followed (in 2-3 min) by the injection of blood (0.02-0.03 ml) taken from under the animal's tongue.
The rats were monitored for 14 days after surgery. Animal's physical condition and behavioral features were recorded at 1, 3, 7 and 14 days.
The animals were distributed into 3 groups. Group 1 comprised sham-operated (SO) rats with craniotomy alone, group 2 comprised animals with HS, and group 3 comprised rats with HS treated with GK-2 (1 mg/kg at 3 h after surgery and every 48 hours thereafter for a total of 6 administrations). Group 1 and group 2 animals were treated with physiological saline in an equivalent volume.
Changes in animals' physical condition and behavior were evaluated by conventional methods. The neurological status was assessed by scoring neurological deficits according to MacGrow's stroke scoring system as modified by I. V. Gannushkina; by the muscle tone and coordination of movements monitoring methods; cognitive function was assessed by the passive avoidance conditioned reflex (PAR); and orientation and exploratory behavior by using the open field test. Also the drug's effect on the survival of rats was monitored.

[4] = system: Wistar rats; conditions: 1.0 mg/kg i.p. 24 h prior to scopolamine 1.0 mg/kg s.c.; FIG. 2.11
Description: Male Wistar rats weighing 190-220 g were used for this experiment. The test compound was administered intraperitoneally at a dose of 1.0 mg/kg at 24 hours prior to the scopolamine injection (1.0 mg/kg s.c.). The control group was treated with distilled water according to the same regimen. Scopolamine was injected 60 min before placing the animals in a T-shaped maze. Following a further 120 min the animals were subjected to testing in accordance with the original protocol (Deacon R. M. J., Rawlins J. N. P. T-maze alternation in the rodent. Nature Protocols, 2006, 1(1), 7-12).

[5] = system: HT-22 cells
Description: The determination of cell viability was carried out by MTT test. MTT is a water soluble tetrazolium salt of yellow color which readily permeates cells. In living cells, MTT is converted into water insoluble formazan crystals of violet color. At the end of an experiment the growth medium was replaced with an MTT solution (0.5 mg/ml) and incubated for 30 min at 37° C. and 5% CO2. The MTT solution was then removed from the wells and DMSO was added to dissolve the formazan precipitate. Then the optical density was measured using a Multiscan (Thermo) spectrophotometer at a wavelength of 600 nm.

For `NCCCC[C@H](NC(=O)[C@H](CCC(=O)O)NC(=O)CCC(=O)O)C(=O)NCCCCCCNC(=O)[C@H](CCCCN)NC(=O)[C@H](CCC(=O)O)NC(=O)CCC(=O)O` [GK-2, bis-(N-monosuccinyl-glutamyl-lysine) hexamethylenediamide], the “Optical density (MTT)” value ([1]; 10^−5M) was 0.357 ± 0.051, the “Optical density (MTT)” value ([1]; 10^−8M) was 0.375 ± 0.063 and the “protective effect against MPTP” value ([2]; added 24 hours prior to MPTP 1 mM) was “active at both 10^−5 M and 10^−8 M”. For the same compound, the “protective effect against MPTP” value ([2]; added concurrently with MPTP 1 mM, 10^−5 M and 10^−8 M tested) was “only at 10^−5 M”, the “Number of rats lost within 14 days after HS, total loss, %” value ([3]; sham 0, stroke 40) was 0% and the “Number of rats lost within 14 days after HS, total loss, abs.” value ([3]; sham 0/10, stroke 4/10) was 0/10^#. For the same compound, the “Latency to entering the dark compartment (burrowing reflex)” value ([3]; sham 13.3 ± 2.10, stroke 40.2 ± 13.2) was 27.9 ± 10.4 s, the “Number of rats lost, %” value ([3]; Day 1, sham 0, stroke 20) was 0% and the “Number of rats lost, abs.” value ([3]; Day 1, sham 0/10, stroke 2/10) was 0/10. The “Number of crossings into open arms” value ([3]; Day 1, sham 0.9, stroke 0) was 1.6 ± 0.4, the “Number of crossings into the middle” value ([3]; Day 1, sham 1.9, stroke 0.25) was 1.5 ± 0.4 and the “Number of crossings into closed arms” value ([3]; Day 1, sham 2.4, stroke 1.1) was 1.9 ± 0.4. For the same compound, the “Latency to entering an arm” value ([3]; Day 1, sham 6.1, stroke 62.8) was 4.9 ± 1.05 s, the “Length of time spent in open arms” value ([3]; Day 1, sham 11.6, stroke 0) was 51.3 ± 27.9 s and the “Length of time spent in the middle” value ([3]; Day 1, sham 46.8, stroke 95.3) was 27.5 ± 7.4 s. For the same compound, the “PAR retention: Number of rats entering the dark compartment” value (“PAR retention: Number” for short) ([3]; Day 1, sham 60, stroke 100) was 60%, the “PAR retention: Latency to entering the dark compartment” value (shortened to “PAR retention: Latency”) ([3]; Day 1, sham 95.0, stroke 24.5) was 85.5 ± 25.9 s and the “Length of time spent in closed arms” value ([3]; Day 1, sham 241.6, stroke 204.8) was 221.2 ± 28.5 s. The “Number of rats lost, %” value ([3]; Day 3, sham 0, stroke 0) was 0%, the “Number of rats lost, abs.” value ([3]; Day 3, sham 0/10, stroke 0/8) was 0/10 and the “Number of crossings into open arms” value ([3]; Day 3, sham 0.6, stroke 0.12) was 0.8 ± 0.2. For the same compound, the “Number of crossings into the middle” value ([3]; Day 3, sham 0.6, stroke 0.12) was 0.5 ± 0.2, the “Number of crossings into closed arms” value ([3]; Day 3, sham 1.4, stroke 0.5) was 1.2 ± 0.1 and the “Latency to entering an arm” value ([3]; Day 3, sham 5.1, stroke 164.4) was 7.1 ± 1.9 s. For the same compound, the “Length of time spent in open arms” value ([3]; Day 3, sham 6.2, stroke 1.3) was 10.3 ± 4.4 s, the “Length of time spent in the middle” value ([3]; Day 3, sham 18.6, stroke 165.0) was 15.1 ± 4.9 s and the “PAR retention: Number” value ([3]; Day 3, sham 70, stroke 100) was 60%. The “PAR retention: Latency” value ([3]; Day 3, sham 74.0, stroke 18.3) was 88.0 ± 25.8 s, the “Length of time spent in closed arms” value ([3]; Day 3, sham 275.2, stroke 133.7) was 274.6 ± 5.7 s and the “Number of rats lost, %” value ([3]; Day 7, sham 0, stroke 12.5) was 0%. The “Number of rats lost, abs.” value ([3]; Day 7, sham 0/10, stroke 1/8) was 0/10, the “Number of crossings into the middle” value ([3]; Day 7, sham 0.7, stroke 0) was 0.8 ± 0.4 and the “Number of crossings into open arms” value ([3]; Day 7, sham 1.4, stroke 0.4) was 1.1 ± 0.2. The “Number of crossings into closed arms” value ([3]; Day 7, sham 1.4, stroke 1.0) was 1.5 ± 0.2, the “Latency to entering an arm” value ([3]; Day 7, sham 3.0, stroke 67.4) was 2.5 ± 0.3 s and the “Length of time spent in the middle” value ([3]; Day 7, sham 8.3, stroke 67.4) was 8.0 ± 2.2 s. The “Length of time spent in open arms” value ([3]; Day 7, sham 13.3, stroke 8.6) was 9.2 ± 1.9 s, the “PAR retention: Number” value ([3]; Day 7, sham 50, stroke 100) was 80% and the “PAR retention: Latency” value ([3]; Day 7, sham 97.2, stroke 17.6) was 45.5 ± 22.5 s. For the same compound, the “Length of time spent in closed arms” value ([3]; Day 7, sham 278.4, stroke 238.3) was 283.0 ± 2.9 s, the “Number of rats lost, %” value ([3]; Day 14, sham 0, stroke 14.3) was 0% and the “Number of rats lost, abs.” value ([3]; Day 14, sham 0/10, stroke 1/7) was 0/10. For the same compound, the “Number of crossings into the middle” value ([3]; Day 14, sham 0.7, stroke 0.2) was 1.4 ± 0.3, the “Number of crossings into open arms” value ([3]; Day 14, sham 1.1, stroke 0.2) was 1.1 ± 0.3 and the “Number of crossings into closed arms” value ([3]; Day 14, sham 1.3, stroke 0.8) was 1.6 ± 0.4. For the same compound, the “Latency to entering an arm” value ([3]; Day 14, sham 3.1, stroke 54.3) was 2.6 ± 0.4 s, the “Length of time spent in the middle” value ([3]; Day 14, sham 18.1, stroke 57.7) was 16.4 ± 8.5 s and the “Length of time spent in open arms” value ([3]; Day 14, sham 29.7, stroke 0.8) was 8.8 ± 2.3 s. For the same compound, the “PAR retention: Number” value ([3]; Day 14, sham 60, stroke 100) was 90%, the “PAR retention: Latency” value ([3]; Day 14, sham 93.5, stroke 8.0) was 45.0 ± 16.4 s and the “Length of time spent in closed arms” value ([3]; Day 14, sham 252.2, stroke 241.5) was 274.8 ± 9.9 s. The “scopolamine-induced working memory impairment (spontaneous alternation, T-maze)” value [4] was “could prevent”, the “Optical density (MTT)” value ([5]; 10^−8M, 24 h prior to glutamate, control 0.178 ± 0.010, glutamate 0.145 ± 0.013) was 0.179 ± 0.007^ and the “protective effect against glutamate cytotoxicity” value ([5]; added 24 hours prior to glutamate) was “protective effect”.
